Measurements from patent US12630512B2, “Agents for differentiating stem cells and treating cancer” (Minerva Biotechnologies Corporation, priority 2017, dated 2026).

Tests used:
[1] = system: human primed state stem cells; experiment: Stem cell drug screen on primed state stem cells (pluripotency, proliferation, differentiation); assay type: cell-based; conditions: for induction of differentiation / effect on growth of primed state stem cells: treated for 3 days, JQ1 at 500 nM or 1 uM (FIGS. 11-12)
Method: (§1) The stem cell screening assay, was performed in both the presence and absence of the stem cell growth factors: NME7AB for growing naïve stem cells or FGF for growing primed stem cells. If the cognate growth factor was present, then the biological or small molecule would have to compete away the growth factor to get an effect. Therefore, we expected to see more of an effect when the growth factor, FGF for primed stem cells or NME7AB or NME1 dimers for naïve stem cells, was absent. The effect of the compounds on stem cells was visually determined and compounds were ranked 0-4, with 4 being the greatest effect and 0 being no observable effect. The major effect that was observed was a change from pluripotent stem cell morphology, which is a cobblestone pattern of small round cells with a large nucleus to cytoplasm ratio, to that of differentiating stem cells, which are elongated, large and flattened cells with a smaller nucleus to cytoplasm ratio. […] The compounds were added to a final concentration of 6 uM to either naïve state stem cells or primed state stem cells. In this particular case, the naïve state stem cells were maintained in a naïve state by culturing in a media containing NME7AB or NME1 dimers. However, other methods such as 2i and 5i (Silva et al., 2008, Nichols and Smith, 2009, Theunissen et al., 2014)] can be used to maintain stem cells in a more naïve state. In this case primed state stem cells were cultured in bFGF over a layer of MEFs, although it is known that any bFGF containing media will maintain stem cells in the primed state.
(§2) Percent inhibition of cancer cell migration was performed in a wound healing assay. The percent area that the invading cancer cells occupied, in the presence of a drug candidate compared to the controls, was quantified by Image J cell software which enables cell counting from photographs. IC50's were calculated by performing migration experiments at several compound concentrations and then applying Hill's equation. Inhibition of cancer cell proliferation was quantified by automated cell counting in the presence or absence of a drug candidate. Here, the inhibition of cancer cell proliferation was scored 1 if proliferation was inhibited by 25%, 2 if inhibited by […] and 4 for the highest degree of inhibition of proliferation, and 0 for the lowest. The effect of the drug candidates on stem cell pluripotency or proliferation was scored by eye, based on cell morphology and cell density, with 0 being no change in morphology or cell number and 4 being the most profound effect, with the stem cells taking on the morphology of a differentiating cell, along with much fewer cells indicative of inhibition of proliferation. As an example, FIGS. 30A-30F show photographs of naïve stem cell, primed stem cell and fibroblast controls. FIGS. 31A-31F show the effect of compounds of the invention on naïve state stem cells, where the number of ‘+’ signs indicates the score from 0-4 of ability of compound to inhibit pluripotency, proliferation of naïve stem cells or ability to induce their differentiation. […] FIGS. 36-44 and 65-87 show photographs and IC50 graphs of the compounds of the invention, inhibiting cancer cell migration and invasion. Cancer cell migration is a hallmark of metastatic cancer.
Stem cells whether embryonic or induced pluripotent stem (iPS) cells were cultured in a minimal, serum-free media that contained human recombinant bFGF at a concentration of 8 ng/mL. The stem cells were plated over a layer of inactivated mouse embryonic fibroblasts, aka MEFs, which secrete additional uncharacterized growth factors and cytokines.
Human naïve state and primed stem cells were cultured in parallel for at least 5 passages to guarantee normal differentiation-free growth. The stem cells were plated in 12-well cell culture plates with 50,000 cells per well. Cells were cultured in their respective media, either bFGF media or NME7AB media for 24 hours. […]

[2] = system: human naïve state stem cells; experiment: Stem cell drug screen on naïve state stem cells (pluripotency, proliferation, differentiation); assay type: cell-based; conditions: JQ1 at 500 nM or 1 uM, naïve cells from NME7AB or NME1 dimers (FIGS. 13-16)
[3] = system: fibronectin, vimentin, NF1; experiment: RT-PCR of markers of differentiation in naïve stem cells; assay type: cell-based, human
Text: The genes whose expression increased as a result of treatment with the compounds of the invention, in a concentration dependent manner, are fibronectin and vimentin, which both increase as stem cells initiate differentiation and NF1, which is one of the first genes to increase when stem cells begin to differentiate down the neural lineage. […] Thus, compounds of the invention that induce markers of differentiation are useful for the treatment of cancers, because cancer cells, by definition, have de-differentiated, which allows them to continually self-replicate. […] Expression of metastatic marker E-cadherin was reduced and expression of differentiation markers fibronectin, vimentin and NF1 were increased.

human fibroblasts = experiment: Effect on fibroblasts as surrogate for normal cells; assay type: cell-based; conditions: 500 nM final concentration (FIG. 24)
Text: However, fibroblasts are more differentiated than stem cells but are able to self-replicate for defined periods of time. We tested selected compounds of the invention to determine if these compounds were just cytotoxic or if they selectively affected stem cells and, importantly, cancer cells, but not normal, healthy cells. Here, we used fibroblasts as a surrogate for normal cells. […] […] Each compound was scored for its effect on fibroblast proliferation where “+” indicates 25% inhibition of fibroblast growth, “++” 50% inhibition and “+++” 75% inhibition of growth.

[4] = system: human naïve state stem cells; experiment: Stem cell drug screen on naïve state stem cells (pluripotency, proliferation, differentiation); assay type: cell-based; conditions: first panel (FIGS. 2, 7-10); small molecules 6 uM; 3 days; with or without NME7AB
Method: as §1, §2
Stem cells whether embryonic or induced pluripotent stem (iPS) cells were cultured in a minimal, serum-free media that contained human recombinant NME7AB at a concentration of 2-32 nM wherein 4-8 nM is preferred and 4 nM is more preferred. To facilitate surface attachment, cell culture plates were coated with an anti-MUC1* monoclonal antibody called MN-C3 or C3 or MN-C8 at a concentration of 2-100 μg/mL coating solution, wherein 3-50 ug/mL is preferred and 6-12.5 ug/mL is more preferred. In these experiments, 12.5 ug/mL of MN-C3 was used. Antibody coated plates were incubated at 4 degrees C. overnight prior to plating stem cells. A Rho kinase I inhibitor was added to enhance surface attachment. […]

cancer cells [5] = conditions: in vitro; stated as previously shown; cited from earlier work
cancer cells [6] = conditions: NME7AB-driven transformation; stated as previously shown; cited from earlier work

Compound: Cc1sc2c(c1C)C(c1ccc(Cl)cc1)=N[C@@H](CC(=O)OC(C)(C)C)c1nnc(C)n1-2 [JQ1(+), reference compound]
- effect on the size of primed stem cell colonies ([1]; treated for 3 days (FIG. 11)): modest effect
- induction of differentiation / effect on growth of primed state stem cells [1]: None of these agents appeared to induce differentiation
- induction of differentiation / effect on growth of primed state stem cells ([1]; listed as JQI): not primed stem cell growth
- effect on naïve state stem cell differentiation and growth [2]: dramatically induced differentiation of naïve state stem cells and inhibited their growth
- effect on naïve state stem cell differentiation and growth ([2]; listed as JQI): inhibitory effect
- up-regulation of markers of differentiation in stem cells [3]: did not cause up-regulation of markers of differentiation
- effect on human fibroblasts (human fibroblasts): same effect on fibroblasts as it does on primed state stem cells

Compound: COC(=O)c1ccc(C2c3[nH]c4ccccc4c3CCN2C(=O)c2cccc(Cl)c2)cc1 (centres unmarked) [MN0642]
- induced differentiation / inhibited pluripotency and growth of naïve state stem cells [4]: induced differentiation
- inhibition of cancer cell growth (cancer cells [5]): inhibit the growth of cancer cells in vitro

Compound: CCCCNC(=O)N1CCc2c([nH]c3ccccc23)C1C(C)c1ccccc1 (centres unmarked) [MN1130]
- induced differentiation / inhibited pluripotency and growth of naïve state stem cells [4]: induced differentiation
- effect on primed stem cells ([1]; first panel (FIGS. 2-6), small molecules 6 uM, 3 days, with or without FGF): modest effect

Compound: Cc1[nH]c(/C=C2\C(=O)Nc3ccc(S(=O)(=O)N(C)c4cccc(Cl)c4)cc32)c(C)c1C(=O)N1CCN(C)CC1 [SU11274]
- up-regulation of markers of differentiation in stem cells [3]: did not cause up-regulation of markers of differentiation

Compound: FLR peptide: synthetic peptide corresponding to the extracellular domain of MUC1*, FLR also known as PSMGFR (SEQ ID NO:3) (GTINVHDVETQFNQYKTEAASRYNLTISDVSVSDVPFPFSAQSGA; the extracellular domain of Native Primary Sequence of the MUC1 Growth Factor Receptor (nat-PSMGFR - an example of "PSMGFR"))
- induced differentiation / inhibited pluripotency and growth of naïve state stem cells [4]: induced differentiation
- inhibition of the transition of regular cancer cells to metastatic cancer cells (cancer cells [6]): inhibit the transition
